Patent US9446039B2, “Aminoheteroaryl compounds as MTH1 inhibitors” (CEMM—FORSCHUNGSZENTRUM FÜR MOLEKULARE MEDIZIN GMBH, priority 2012, dated 2016)

Tests used:
Type in all cases: binding
[1] = biological target: SW480 colon carcinoma cells lysate proteins (Homo sapiens, UniProt O14602); settings: PreyGene EIF1AY
[2] = biological target: T1, SW480 colon carcinoma cells lysate proteins (Homo sapiens, UniProt P12081); settings: PreyGene HARS
T1 sequence (P12081 1-509): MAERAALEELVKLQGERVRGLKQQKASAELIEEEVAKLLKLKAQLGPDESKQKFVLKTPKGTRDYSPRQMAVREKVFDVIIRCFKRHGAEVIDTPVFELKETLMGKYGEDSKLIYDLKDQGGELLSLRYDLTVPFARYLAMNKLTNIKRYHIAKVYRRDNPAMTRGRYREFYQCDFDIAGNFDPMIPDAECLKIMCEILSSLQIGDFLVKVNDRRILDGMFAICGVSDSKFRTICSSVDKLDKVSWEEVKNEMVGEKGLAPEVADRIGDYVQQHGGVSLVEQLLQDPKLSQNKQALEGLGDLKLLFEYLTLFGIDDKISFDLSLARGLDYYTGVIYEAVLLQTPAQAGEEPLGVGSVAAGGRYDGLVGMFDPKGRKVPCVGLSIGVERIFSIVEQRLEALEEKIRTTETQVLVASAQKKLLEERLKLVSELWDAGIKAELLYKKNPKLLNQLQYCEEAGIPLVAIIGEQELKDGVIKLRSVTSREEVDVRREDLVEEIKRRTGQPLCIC

[3] = biological target: T2, SW480 colon carcinoma cells lysate proteins (Homo sapiens, UniProt P14174); settings: PreyGene MIF
T2 sequence (P14174 1-115): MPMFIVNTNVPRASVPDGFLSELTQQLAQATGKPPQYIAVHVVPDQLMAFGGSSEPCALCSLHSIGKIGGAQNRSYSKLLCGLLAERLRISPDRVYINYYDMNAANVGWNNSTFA

[4] = biological target: T3, SW480 colon carcinoma cells lysate proteins (Homo sapiens, UniProt P16949); settings: PreyGene STMN1
T3 sequence (P16949 1-149): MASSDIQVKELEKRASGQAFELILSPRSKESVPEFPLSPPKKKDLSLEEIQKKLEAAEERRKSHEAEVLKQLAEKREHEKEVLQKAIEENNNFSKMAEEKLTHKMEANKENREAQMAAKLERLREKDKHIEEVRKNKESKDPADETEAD

[5] = biological target: SW480 colon carcinoma cells lysate proteins (Homo sapiens, UniProt P30086); settings: PreyGene PEBP1
SW480 colon carcinoma cells lysate proteins (Homo sapiens, UniProt P30086), sequence (P30086 whole entry): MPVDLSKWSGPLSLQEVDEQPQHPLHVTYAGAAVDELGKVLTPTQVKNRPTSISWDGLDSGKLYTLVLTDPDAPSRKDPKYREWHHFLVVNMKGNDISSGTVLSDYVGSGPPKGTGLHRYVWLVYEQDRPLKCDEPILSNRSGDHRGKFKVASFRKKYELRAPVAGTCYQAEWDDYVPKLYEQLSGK

[6] = biological target: SW480 colon carcinoma cells lysate proteins (Homo sapiens, UniProt P62942); settings: PreyGene FKBP1A; SW480 cells
SW480 colon carcinoma cells lysate proteins (Homo sapiens, UniProt P62942), sequence (P62942 whole entry): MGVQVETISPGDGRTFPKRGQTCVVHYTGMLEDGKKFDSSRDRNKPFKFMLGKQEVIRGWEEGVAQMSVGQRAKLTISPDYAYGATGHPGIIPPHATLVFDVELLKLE

[7] = biological target: SW480 colon carcinoma cells lysate proteins (Homo sapiens, UniProt P67936); settings: PreyGene TPM4
SW480 colon carcinoma cells lysate proteins (Homo sapiens, UniProt P67936), sequence (P67936 whole entry): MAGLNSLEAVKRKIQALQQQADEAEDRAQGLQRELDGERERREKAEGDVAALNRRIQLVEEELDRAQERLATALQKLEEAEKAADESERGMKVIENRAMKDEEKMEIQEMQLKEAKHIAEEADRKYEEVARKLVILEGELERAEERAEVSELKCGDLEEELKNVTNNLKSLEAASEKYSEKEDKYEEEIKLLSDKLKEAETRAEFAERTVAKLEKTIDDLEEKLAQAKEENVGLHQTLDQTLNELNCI

[8] = biological target: SW480 colon carcinoma cells lysate proteins (Homo sapiens, UniProt P68371); settings: PreyGene TUBB4B; SW480 cells
SW480 colon carcinoma cells lysate proteins (Homo sapiens, UniProt P68371), sequence (P68371 whole entry): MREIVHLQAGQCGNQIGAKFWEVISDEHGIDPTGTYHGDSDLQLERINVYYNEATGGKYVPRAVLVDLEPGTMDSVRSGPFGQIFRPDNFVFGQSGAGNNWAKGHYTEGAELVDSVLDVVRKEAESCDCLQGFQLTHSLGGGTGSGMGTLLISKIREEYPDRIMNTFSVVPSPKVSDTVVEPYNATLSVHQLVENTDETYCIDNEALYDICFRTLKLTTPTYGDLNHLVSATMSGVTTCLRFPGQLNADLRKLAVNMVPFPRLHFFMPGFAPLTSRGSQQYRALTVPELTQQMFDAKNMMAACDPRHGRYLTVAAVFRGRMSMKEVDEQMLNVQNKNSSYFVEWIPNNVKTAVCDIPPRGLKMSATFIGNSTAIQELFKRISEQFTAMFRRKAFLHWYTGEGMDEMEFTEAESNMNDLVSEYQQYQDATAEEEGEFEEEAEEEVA

[9] = biological target: SW480 colon carcinoma cells lysate proteins (Homo sapiens, UniProt Q13561); settings: PreyGene DCTN2
SW480 colon carcinoma cells lysate proteins (Homo sapiens, UniProt Q13561), sequence (Q13561 whole entry): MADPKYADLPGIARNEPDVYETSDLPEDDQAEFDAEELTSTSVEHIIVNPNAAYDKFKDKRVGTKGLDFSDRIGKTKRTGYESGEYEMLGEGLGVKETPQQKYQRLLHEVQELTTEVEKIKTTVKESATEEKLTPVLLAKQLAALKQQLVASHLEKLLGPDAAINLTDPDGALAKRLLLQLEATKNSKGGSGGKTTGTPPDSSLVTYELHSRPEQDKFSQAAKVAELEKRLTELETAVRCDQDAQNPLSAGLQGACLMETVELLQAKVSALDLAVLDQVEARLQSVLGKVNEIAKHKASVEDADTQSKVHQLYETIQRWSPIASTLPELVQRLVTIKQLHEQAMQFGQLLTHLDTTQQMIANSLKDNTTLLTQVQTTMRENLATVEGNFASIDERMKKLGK

[10] = biological target: SW480 colon carcinoma cells lysate proteins (Homo sapiens, UniProt Q562R1); settings: PreyGene ACTBL2; SW480 cells
SW480 colon carcinoma cells lysate proteins (Homo sapiens, UniProt Q562R1), sequence (Q562R1 whole entry): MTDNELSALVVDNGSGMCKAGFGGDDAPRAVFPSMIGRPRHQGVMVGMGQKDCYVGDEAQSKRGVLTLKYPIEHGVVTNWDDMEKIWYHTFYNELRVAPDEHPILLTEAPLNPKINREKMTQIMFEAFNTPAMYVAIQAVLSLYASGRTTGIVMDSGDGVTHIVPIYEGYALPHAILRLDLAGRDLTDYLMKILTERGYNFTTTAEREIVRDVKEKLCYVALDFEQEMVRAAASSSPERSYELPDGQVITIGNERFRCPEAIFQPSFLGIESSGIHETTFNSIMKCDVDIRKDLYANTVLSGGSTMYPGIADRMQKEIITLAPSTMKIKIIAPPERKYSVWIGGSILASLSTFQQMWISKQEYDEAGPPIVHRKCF

[11] = biological target: SW480 colon carcinoma cells lysate proteins (Homo sapiens, UniProt Q9BQE3); settings: PreyGene TUBA1C; SW480 cells
SW480 colon carcinoma cells lysate proteins (Homo sapiens, UniProt Q9BQE3), sequence (Q9BQE3 whole entry): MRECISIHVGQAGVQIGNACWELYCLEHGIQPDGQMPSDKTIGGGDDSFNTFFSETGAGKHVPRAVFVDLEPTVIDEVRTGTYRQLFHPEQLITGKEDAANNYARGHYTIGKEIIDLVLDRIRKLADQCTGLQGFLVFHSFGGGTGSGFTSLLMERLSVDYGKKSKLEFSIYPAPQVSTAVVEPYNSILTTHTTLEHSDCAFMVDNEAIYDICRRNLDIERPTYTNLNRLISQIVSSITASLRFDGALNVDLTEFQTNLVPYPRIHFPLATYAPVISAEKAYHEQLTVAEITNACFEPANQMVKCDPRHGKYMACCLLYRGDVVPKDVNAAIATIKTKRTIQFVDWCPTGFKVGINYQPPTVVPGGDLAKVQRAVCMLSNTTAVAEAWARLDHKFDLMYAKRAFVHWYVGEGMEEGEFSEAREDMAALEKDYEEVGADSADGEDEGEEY

[12] = biological target: SW480 colon carcinoma cells lysate proteins (Homo sapiens, UniProt Q9Y265); settings: PreyGene RUVBL1
SW480 colon carcinoma cells lysate proteins (Homo sapiens, UniProt Q9Y265), sequence (Q9Y265 whole entry): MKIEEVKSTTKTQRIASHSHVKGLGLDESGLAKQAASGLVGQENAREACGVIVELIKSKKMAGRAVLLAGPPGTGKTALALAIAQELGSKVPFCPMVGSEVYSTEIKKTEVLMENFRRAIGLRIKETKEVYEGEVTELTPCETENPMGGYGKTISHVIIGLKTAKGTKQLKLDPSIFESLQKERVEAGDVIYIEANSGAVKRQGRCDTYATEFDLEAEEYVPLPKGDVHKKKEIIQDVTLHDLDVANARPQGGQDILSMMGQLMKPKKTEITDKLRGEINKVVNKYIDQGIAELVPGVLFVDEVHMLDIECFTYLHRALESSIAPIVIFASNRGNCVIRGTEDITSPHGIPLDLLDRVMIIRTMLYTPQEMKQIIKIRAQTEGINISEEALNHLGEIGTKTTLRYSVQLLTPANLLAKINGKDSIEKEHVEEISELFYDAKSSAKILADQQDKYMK

SW480 colon carcinoma cells lysate proteins (Homo sapiens, UniProt O14602), sequence (O14602 whole entry): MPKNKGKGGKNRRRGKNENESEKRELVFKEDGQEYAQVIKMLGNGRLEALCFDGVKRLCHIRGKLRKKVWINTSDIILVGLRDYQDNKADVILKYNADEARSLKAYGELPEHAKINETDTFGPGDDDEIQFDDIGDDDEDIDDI

Q: For `C[C@H](Oc1cc(-c2cnn(C3CCNCC3)c2)cnc1N)c1c(Cl)ccc(F)c1Cl` [(5)-crizotinib], which AvgP [1] is on record?
A: Its AvgP is 0.3949.

Q: What about the “SC.Exp. 1-1” value [1] of the same molecule?
A: The value was 2.

Q: What about the “SC.Exp. 1-2” value [1] of the same molecule?
A: The value was 3.

Q: What about the “SC.Exp. 2-1” value [1] of the same molecule?
A: The value was 0.

Q: What about the “SC.Exp. 2-2” value [1] of the same molecule?
A: The value was 0.

Q: What about the “Sum (SC.Exp.)” value [1] of the same molecule?
A: The value was 5.

Q: And the AvgP [2]?
A: Its AvgP is 0.3676.

Q: What about the “SC.Exp. 1-1” value [2] of the same molecule?
A: The value was 3.

Q: And the “SC.Exp. 1-2” value [2]?
A: The value was 3.

Q: What about the “SC.Exp. 2-1” value [2] of the same molecule?
A: Its value is 0.

Q: What about the “SC.Exp. 2-2” value [2] of the same molecule?
A: Its value is 0.

Q: And the “Sum (SC.Exp.)” value [2]?
A: Its value is 6.

Q: What about the AvgP [3] of the same molecule?
A: The AvgP was 0.3362.

Q: What about the “SC.Exp. 1-1” value [3] of the same molecule?
A: Its value is 0.

Q: What about the “SC.Exp. 1-2” value [3] of the same molecule?
A: Its value is 1.

Q: And the “SC.Exp. 2-1” value [3]?
A: Its value is 2.

Q: And the “SC.Exp. 2-2” value [3]?
A: Its value is 2.

Q: And the “Sum (SC.Exp.)” value [3]?
A: Its value is 5.

Q: And the AvgP [4]?
A: The AvgP was 0.4156.

Q: What about the “SC.Exp. 1-1” value [4] of the same molecule?
A: Its value is 3.

Q: What about the “SC.Exp. 1-2” value [4] of the same molecule?
A: The value was 3.

Q: What about the “SC.Exp. 2-1” value [4] of the same molecule?
A: The value was 0.

Q: And the “SC.Exp. 2-2” value [4]?
A: Its value is 0.

Q: What about the “Sum (SC.Exp.)” value [4] of the same molecule?
A: Its value is 6.

Q: And the AvgP [5]?
A: Its AvgP is 0.3266.

Q: And the “SC.Exp. 1-1” value [5]?
A: The value was 3.

Q: And the “SC.Exp. 1-2” value [5]?
A: The value was 3.

Q: What about the “SC.Exp. 2-1” value [5] of the same molecule?
A: The value was 0.

Q: What about the “SC.Exp. 2-2” value [5] of the same molecule?
A: The value was 0.

Q: And the “Sum (SC.Exp.)” value [5]?
A: Its value is 6.

Q: And the AvgP [6]?
A: Its AvgP is 0.

Q: What about the “SC.Exp. 1-1” value [6] of the same molecule?
A: Its value is 1.

Q: What about the “SC.Exp. 1-2” value [6] of the same molecule?
A: Its value is 1.

Q: And the “SC.Exp. 2-1” value [6]?
A: Its value is 1.

Q: And the “SC.Exp. 2-2” value [6]?
A: Its value is 0.

Q: And the “SC.Exp. Sum” value [6]?
A: The value was 3.

Q: And the AvgP [7]?
A: Its AvgP is 0.4193.

Q: And the “SC.Exp. 1-1” value [7]?
A: Its value is 5.

Q: What about the “SC.Exp. 1-2” value [7] of the same molecule?
A: The value was 2.

Q: And the “SC.Exp. 2-1” value [7]?
A: The value was 0.

Q: And the “SC.Exp. 2-2” value [7]?
A: Its value is 0.

Q: And the “Sum (SC.Exp.)” value [7]?
A: The value was 7.

Q: What about the AvgP [8] of the same molecule?
A: The AvgP was 0.

Q: What about the “SC.Exp. 1-1” value [8] of the same molecule?
A: Its value is 8.

Q: And the “SC.Exp. 1-2” value [8]?
A: Its value is 8.

Q: What about the “SC.Exp. 2-1” value [8] of the same molecule?
A: Its value is 2.

Q: What about the “SC.Exp. 2-2” value [8] of the same molecule?
A: Its value is 4.

Q: And the “SC.Exp. Sum” value [8]?
A: The value was 22.

Q: What about the AvgP [9] of the same molecule?
A: The AvgP was 0.2964.

Q: What about the “SC.Exp. 1-1” value [9] of the same molecule?
A: The value was 2.

Q: What about the “SC.Exp. 1-2” value [9] of the same molecule?
A: The value was 3.

Q: What about the “SC.Exp. 2-1” value [9] of the same molecule?
A: The value was 0.

Q: What about the “SC.Exp. 2-2” value [9] of the same molecule?
A: Its value is 0.

Q: And the “Sum (SC.Exp.)” value [9]?
A: The value was 5.

Q: What about the AvgP [10] of the same molecule?
A: Its AvgP is 0.

Q: What about the “SC.Exp. 1-1” value [10] of the same molecule?
A: The value was 1.

Q: What about the “SC.Exp. 1-2” value [10] of the same molecule?
A: The value was 1.

Q: And the “SC.Exp. 2-1” value [10]?
A: The value was 0.

Q: And the “SC.Exp. 2-2” value [10]?
A: Its value is 0.

Q: And the “SC.Exp. Sum” value [10]?
A: Its value is 2.

Q: And the AvgP [11]?
A: The AvgP was 0.

Q: What about the “SC.Exp. 1-1” value [11] of the same molecule?
A: The value was 1.

Q: And the “SC.Exp. 1-2” value [11]?
A: The value was 1.

Q: And the “SC.Exp. 2-1” value [11]?
A: Its value is 0.

Q: What about the “SC.Exp. 2-2” value [11] of the same molecule?
A: The value was 1.

Q: And the “SC.Exp. Sum” value [11]?
A: Its value is 3.

Q: What about the AvgP [12] of the same molecule?
A: The AvgP was 0.3864.

Q: And the “SC.Exp. 1-1” value [12]?
A: Its value is 2.

Q: What about the “SC.Exp. 1-2” value [12] of the same molecule?
A: The value was 3.

Q: What about the “SC.Exp. 2-1” value [12] of the same molecule?
A: Its value is 0.

Q: And the “SC.Exp. 2-2” value [12]?
A: The value was 0.

Q: And the “Sum (SC.Exp.)” value [12]?
A: Its value is 5.
